From article PMC2222994 (The Journal of General Physiology, 1999)

Target: T1, CNG channel (bovine retinal rod cGMP-gated channel alpha subunit) (Bos taurus, UniProt Q00194)
T1 sequence (Q00194 1-690): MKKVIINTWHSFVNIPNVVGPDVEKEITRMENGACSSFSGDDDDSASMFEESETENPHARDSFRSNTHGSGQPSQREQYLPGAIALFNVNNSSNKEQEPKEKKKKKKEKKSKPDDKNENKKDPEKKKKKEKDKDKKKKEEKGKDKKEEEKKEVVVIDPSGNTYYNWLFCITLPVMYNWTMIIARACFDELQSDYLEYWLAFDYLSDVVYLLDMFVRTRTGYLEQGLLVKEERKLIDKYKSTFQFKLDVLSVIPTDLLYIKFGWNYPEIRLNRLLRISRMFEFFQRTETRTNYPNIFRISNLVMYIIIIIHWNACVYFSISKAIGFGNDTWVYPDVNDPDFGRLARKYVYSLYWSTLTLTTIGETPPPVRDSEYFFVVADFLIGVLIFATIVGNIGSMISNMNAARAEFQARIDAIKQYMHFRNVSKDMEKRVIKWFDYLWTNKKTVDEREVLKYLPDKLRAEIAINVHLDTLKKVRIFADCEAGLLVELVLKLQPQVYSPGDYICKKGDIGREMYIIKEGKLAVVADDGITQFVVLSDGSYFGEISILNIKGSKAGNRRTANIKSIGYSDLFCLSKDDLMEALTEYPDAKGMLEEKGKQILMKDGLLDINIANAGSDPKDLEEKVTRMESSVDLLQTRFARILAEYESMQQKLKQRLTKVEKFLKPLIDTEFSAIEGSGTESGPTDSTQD
Experiment: outside-out patch clamp, macroscopic current block
Type: cell-based

Compound | IC50 [µM]
NCCCNCCCCNCCCN [spermine] | 3.1
NCCCCNCCCN [spermidine] | 50
NCCCCN [putrescine] | 1400
